We go through one substance from US20120034608A1, “MICRORNA AS A BIOMARKER OF PANCREATIC ISLET BETA-CELL ENGAGEMENT” (Merck Sharp & Dohme Corp., priority 2009, published 2012).

One test relates to C57/Bl6 mice. The test is described as follows: plasma miRNA levels in lean mice after a single injection. It is filed as in vivo, mouse. Particulars: C57/Bl6 mice (FIG. 5 legend). The protocol: The plasma levels of miR-132 and miR-212 were measured in lean mice treated with an oxyntomodulin (OXM) derivative (a long-acting GLP-1 receptor agonist disclosed in Published International Application No. WO2007/100535) before and then 24-hours and 48-hours after a single injection of the OXM derivative. Groups of 16 weeks old mice were dosed with 30 mpk OXM derivative (s.c.) or vehicle (3% mannitol, 75 mM NaCl, 20 mM sodium acetate, pH 5) and approximately 50 μL blood each were collected into EDTA tubes before and 24 hours and 48 hours post-dosing. All the blood samples were immediately placed on ice and plasma were prepared within one hour and stored at −80° C. RNA extraction and TAQMAN RT-PCR analysis were as described in Example 3. 50 μL aliquots of the plasma samples were thawed on ice and 2× Denaturing Solution (Ambion) was added. To allow for normalization for sample variations, three C. elegans miRNAs, cel-miR39, cel-miR54, and cel-miR-238, were added at a final concentration of 20, 200, and 2000 fM (sequence information according to miRBase). miR132, miR-212, and miR-375 expression levels were normalized to spiked-in cel-miR39.

In the next test the test system is INS-1 832/3 cells. The test is described as follows: TAQMAN real-time quantitative RT-PCR of miRNA expression in INS-1 832/3 cells. It counts as cell-based, rat. The protocol:
INS-1 832/3 and 832/13 cells were maintained in RPMI 1640 with 10% FBS and 11 mM glucose. For GLP-1 treatment, GLP-1 (7-37) amide (ABCHEM) was added in the media in the presence of 16 mM glucose for 24 hours. Total RNA was extracted with TRIZOL as in Example 1. Rat islet isolation and treatment was as follows. Pancreatic islets of Langerhans were isolated from the pancreas of normal Sprague-Dawley rats (Charles River, Ind.) by collagenase digestion and discontinuous Ficoll gradient separation (15). Islets were cultured for 2 hours in RPMI 1640 medium with 11 mM glucose for recovery from the isolation process. Then 100-200 islets were treated with 50 nM GLP-1 in the media with 11 mM glucose for 24 hours. RNA was extracted with TRIZOL as in Example 1 for quantification of microRNA species.
Fluorogenic TAQMAN detector probes specific for miR-132 (Cat# TM457), miR-212 (Cat# TM515), miR-375 (Cat#TM564), and miR-217 (Cat#1133) were purchased from Applied Biosystems (Foster City, Calif.). The TAQMAN RT-PCR reactions were performed according to the manufacturer's instructions.
Relative miRNA levels for the miRNAs of interest were determined by real-time reverse transcription reaction using the ABI PRISM 7900 Sequence Detection System from Applied Biosystems (Foster City, Calif.) according to the manufacturer's protocol. Briefly, 10 ng of total RNA was mixed with 1 U MultiScribe Reverse Transcriptase, 0.25 U RNase Inhibitor, 3 μL hairpin-looped miRNA-specific RT primer, 1 mM dNTPs and 1× Reverse Transcription Buffer in a total volume of 15 μL. The mixture was incubated at 16° C. for 30 minutes, 42° C. for another 30 minutes, and the reaction was stopped by heating to 85° C. for 5 minutes. Real time PCR reaction was set up in 20 μL volume with 1.33 μL first strand cDNA, 1× TAQMAN MicroRNA Assay Mix and 1× TAQMAN Universal PCR Master Mix. After activation of the AMPLITAQ Gold DNA polymerase at 95° C. for 10 minutes, 40 cycles of two-step PCR were run (95° C. for 15 seconds and 60° C. for 60 seconds). Data were collected and analyzed with SDS v.2.2.2 software (Applied Biosystems). 4.5S RNA or U6 probe (Applied Biosystems) was used as a reference to determine the relative abundance of each miRNA in different samples. TAQMAN RT-PCR was performed according the manufacturer's instructions.
The absolute miRNA levels were determined by reverse transcription reactions in GeneAmp PCR system 9700 followed by amplification using the ABI PRISM 7900HT Sequence Detection System from Applied Biosystems (Foster City, Calif.) through 40 cycles. 4.5S RNA (H) probe (Cat#TM1716) or U6 (Cat#TM1973) was used as reference to determine the relative abundance of each miRNA in different samples. The induction of miR-132 and miR-212 expression by GLP-1 started around 4 hour post-GLP-1 treatment, peaked at 24 hours and was sustained up to 48 hours (FIG. 2).
(In general: Real-time PCR tracks product formation cycle by cycle.)

Where [1] appears, read: 50 nM GLP-1, 50 nM Exendin-4, 5 μM IBMX, 1 μM Foskolin (FIG. 6A).

Consider GLP-1 (7-37) amide, for which, in the test with C57/Bl6 mice, the “plasma levels of miR-132” value is given as “increased” and the “plasma levels of miR-212” value is given as “increased”. In the test with INS-1 832/3 cells (setting [1]), the miR-132 expression result is recorded as “significantly increased”, the miR-212 expression entry is on record as “significantly increased” and the miR-375 expression entry is recorded as “remained unchanged”. Also, in the test on INS-1 832/3 cells (50 nM GLP-1 time course), the “induction of miR-132 and miR-212 expression sustained up to” value was “up to 48 hours”; the “peak of induction of miR-132 and miR-212 expression” value worked out at 24 h; the “start of induction of miR-132 and miR-212 expression, time post-GLP-1 treatment” value is given as “around 4 hour”. In addition, in the test on INS-1 832/3 cells (GLP-1 treatment), the “induction of miR-132 and miR-212 (subsequent TAQMAN analyses)” value is reported as “confirmed the induction”; the “induction of miR-217 (subsequent TAQMAN analyses)” value was “not miR-217”.
